{"source": "patent US20140371165A1", "about": "“Identification of NSC23925 Isomers to Reverse Multidrug Resistance in Human Cancers” (priority 2012, published 2014)", "key": {"SW480TR": {"system": "SW480TR", "assay": "MTT cytotoxicity assay and reversal of MDR in SW480TR", "assay_type": "cell-based, human", "description": "A panel of parental cancer cell line and their daughter resistant cell lines, displaying MDR phenotype were used in this study. Human ovarian cancer cell line SKOV-3, breast cancer cell line MCF-7 and colon cancer cell line SW480, the osteosarcoma cell line U-2OS, KHOS, uterine sarcoma cell line MESSA and its doxorubicin selected drug resistant cell line MESSA/Dx5, non-small cell lung cancer cell line H-69 and its doxorubicin selected drug resistant cell line H-69AR (overexpress MRP1) were obtained from the ATCC (Rockville, Md.). Dr. Efstathios Gonos (Institute of Biological Research & Biotechnology, Athens, Greece) provided the doxorubicin resistant U-2OS R2 (referred in the text below as U-2OSDR), KHOS R2 cell lines. Dr. Erasmus Schneider (Wadsworth Center, Albany) provided the mitoxantrane resistant breast cancer MCF-7/MX (overexpress BCRP) cell line. All the cell lines were cultured in RPMI 1640 (Invitrogen, Carlsbad, Calif.) supplemented with 10% fetal bovine serum, 100-units/ml penicillin and 100 μg/ml streptomycin (Invitrogen). Cells were incubated at 37° C. in 5% CO2-95% air atmosphere and passaged when near confluent monolayers were achieved using 2% trypsin-EDTA solution. […] The fresh chemotherapy drugs were obtained from the pharmacy at the Massachusetts General Hospital and stored at −20° C.\nTo evaluate for reversal of Pgp-mediated MDR, SKOV-3TR, MCF-7adr and SW480TR cell lines were seeded into 96-well tissue culture plate at 2,000 cells per well with varying concentrations of chemotherapy drugs and NSC23925b for 6 days. Cell proliferation IC50 (concentration required for 50% inhibition) and MDR reversal IC50 were determined from dose-response curves carried out in triplicate in 96-well plate. Fold of reverse resistance for individual drugs were defined as the IC50 of MDR cells without NSC23925b treatment divided by the IC50 of MDR cells treated with NSC23925b. […] Drug cytotoxicity was assessed in vitro using the MTT assay as previously described. […] Response curves were fitted with use of GraphPad PRISM 4 software (GraphPad Software).\nMCF-7adr and SW480TR cells were treated with paclitaxel (FIGS. 2A-B), doxorubicin (FIGS. 2C-D) or mitoxantrane (FIGS. 2E-F) and NSC23925b in RPMI1640 complete media at the indicated concentrations. The relative sensitivity of each line to the indicated drugs was determined by MTT analysis 6 days post-treatment."}, "H-69AR": {"system": "H-69AR", "assay": "MTT reversal of MRP1-mediated MDR in H-69AR", "assay_type": "cell-based, human", "conditions": "non-Pgp expressing drug resistant cell line"}, "MCF-7/MX": {"system": "MCF-7/MX", "assay": "MTT reversal of BCRP-mediated MDR in MCF-7/MX", "assay_type": "cell-based, human", "conditions": "non-Pgp expressing drug resistant cell line", "description": "A panel of parental cancer cell line and their daughter resistant cell lines, displaying MDR phenotype were used in this study. Human ovarian cancer cell line SKOV-3, breast cancer cell line MCF-7 and colon cancer cell line SW480, the osteosarcoma cell line U-2OS, KHOS, uterine sarcoma cell line MESSA and its doxorubicin selected drug resistant cell line MESSA/Dx5, non-small cell lung cancer cell line H-69 and its doxorubicin selected drug resistant cell line H-69AR (overexpress MRP1) were obtained from the ATCC (Rockville, Md.). Dr. Efstathios Gonos (Institute of Biological Research & Biotechnology, Athens, Greece) provided the doxorubicin resistant U-2OS R2 (referred in the text below as U-2OSDR), KHOS R2 cell lines. Dr. Erasmus Schneider (Wadsworth Center, Albany) provided the mitoxantrane resistant breast cancer MCF-7/MX (overexpress BCRP) cell line. […]\nTo evaluate for reversal of Pgp-mediated MDR, SKOV-3TR, MCF-7adr and SW480TR cell lines were seeded into 96-well tissue culture plate at 2,000 cells per well with varying concentrations of chemotherapy drugs and NSC23925b for 6 days. […] Drug cytotoxicity was assessed in vitro using the MTT assay as previously described. Drugs at the concentrations utilized in the MTT assay were performed in the absence of cells to verify no change in absorbance. […]"}, "MDR cancer cell lines": {"system": "MDR cancer cell lines", "assay": "MTT reversal of drug resistance in MDR cell lines (cell line not specified)", "assay_type": "cell-based", "description": "A panel of parental cancer cell line and their daughter resistant cell lines, displaying MDR phenotype were used in this study. Human ovarian cancer cell line SKOV-3, breast cancer cell line MCF-7 and colon cancer cell line SW480, the osteosarcoma cell line U-2OS, KHOS, uterine sarcoma cell line MESSA and its doxorubicin selected drug resistant cell line MESSA/Dx5, non-small cell lung cancer cell line H-69 and its doxorubicin selected drug resistant cell line H-69AR (overexpress MRP1) were obtained from the ATCC (Rockville, Md.). Dr. Efstathios Gonos (Institute of Biological Research & Biotechnology, Athens, Greece) provided the doxorubicin resistant U-2OS R2 (referred in the text below as U-2OSDR), KHOS R2 cell lines. Dr. Erasmus Schneider (Wadsworth Center, Albany) provided the mitoxantrane resistant breast cancer MCF-7/MX (overexpress BCRP) cell line. All the cell lines were cultured in RPMI 1640 (Invitrogen, Carlsbad, Calif.) supplemented with 10% fetal bovine serum, 100-units/ml penicillin and 100 μg/ml streptomycin (Invitrogen). Cells were incubated at 37° C. in 5% CO2-95% air atmosphere and passaged when near confluent monolayers were achieved using 2% trypsin-EDTA solution. Drug-resistant cell lines were periodically cultured in the respective drug to confirm their drug resistance characteristics. The fresh chemotherapy drugs were obtained from the pharmacy at the Massachusetts General Hospital and stored at −20° C.\nTo evaluate for reversal of Pgp-mediated MDR, SKOV-3TR, MCF-7adr and SW480TR cell lines were seeded into 96-well tissue culture plate at 2,000 cells per well with varying concentrations of chemotherapy drugs and NSC23925b for 6 days. Cell proliferation IC50 (concentration required for 50% inhibition) and MDR reversal IC50 were determined from dose-response curves carried out in triplicate in 96-well plate. Fold of reverse resistance for individual drugs were defined as the IC50 of MDR cells without NSC23925b treatment divided by the IC50 of MDR cells treated with NSC23925b. To test for the effect of reversal of MRP1 or BCRP-mediated MDR, H-69AR or MCF-7/MX cells were placed into 96-wells and treated with chemotherapy drugs similar as described above. Drug cytotoxicity was assessed in vitro using the MTT assay as previously described. Drugs at the concentrations utilized in the MTT assay were performed in the absence of cells to verify no change in absorbance. Response curves were fitted with use of GraphPad PRISM 4 software (GraphPad Software)."}, "[1]": {"conditions": "Reverse Drug Resistance by NSC23925b, value = chemotherapy drug, hydrochloride"}}, "note": "Entries after “also recorded” stand apart in the source; their conditions may differ. Where a name gives a salt, the structure may show the parent alone.", "data": [{"smiles": "COc1ccc(-c2cc([C@H](O)[C@H]3CCCCN3)c3ccccc3n2)cc1", "note": "[NSC23925b, (2-(4-methoxyphenyl)quinolin-4-yl)(piperidin-2-yl)methanol hydrochloride]", "values": [{"measurement": "fold-reversal of drug resistance", "setting": "SW480TR; Doxorubicin, NSC23925b 0.1 μM", "value": 1.7, "unit": "fold"}, {"measurement": "fold-reversal of drug resistance", "setting": "SW480TR; Doxorubicin, NSC23925b 0.5 μM", "value": 3, "unit": "fold"}, {"measurement": "fold-reversal of drug resistance", "setting": "SW480TR; Doxorubicin, NSC23925b 1 μM", "value": 8, "unit": "fold"}, {"measurement": "reverse paclitaxel, doxorubicin, and mitoxantrane resistance", "setting": "SW480TR; MTT 6 days post-treatment", "value": "able to reverse"}, {"measurement": "fold-reversal of drug resistance", "setting": "SW480TR; Mitoxantrane, NSC23925b 0.1 μM", "value": 1.2, "unit": "fold"}, {"measurement": "fold-reversal of drug resistance", "setting": "SW480TR; Mitoxantrane, NSC23925b 0.5 μM", "value": 3, "unit": "fold"}, {"measurement": "fold-reversal of drug resistance", "setting": "SW480TR; Mitoxantrane, NSC23925b 1 μM", "value": 14, "unit": "fold"}, {"measurement": "fold-reversal of drug resistance", "setting": "SW480TR; Paclitaxel, NSC23925b 0.1 μM", "value": 1.3, "unit": "fold"}, {"measurement": "fold-reversal of drug resistance", "setting": "SW480TR; Paclitaxel, NSC23925b 0.5 μM", "value": 8, "unit": "fold"}, {"measurement": "fold-reversal of drug resistance", "setting": "SW480TR; Paclitaxel, NSC23925b 1 μM", "value": 13, "unit": "fold"}, {"measurement": "reversal of MRP1 mediated drug resistance", "setting": "H-69AR", "value": "unable to reverse drug resistance"}, {"measurement": "reversal of BCRP mediated drug resistance", "setting": "MCF-7/MX", "value": "unable to reverse drug resistance"}, {"measurement": "effects on the drug sensitivities of cisplatin, carboplatin, toptecan and methotrexate", "setting": "MDR cancer cell lines", "value": "no significant effects"}, {"measurement": "Decreased Drug Resistance (drug to which NSC23925b decreased resistance)", "setting": "MDR cancer cell lines; [1]", "value": "Gemcitabine; also recorded: ET-743; also recorded: Mitoxantrane; also recorded: Paclitaxel; also recorded: Docetaxel; also recorded: Doxorubicin; also recorded: Vincristine; also recorded: Daunorubicin"}, {"measurement": "No Effect (drug whose resistance NSC23925b did not change)", "setting": "MDR cancer cell lines; [1]", "value": "Cisplatin; also recorded: Carboplatin; also recorded: Topotecan; also recorded: Methotrexate"}, {"measurement": "effect on doxorubicin-induced cell death (MTT cytotoxicity assay)", "setting": "MDR cancer cell lines; combined with doxorubicin", "value": "synergistic effect"}, {"measurement": "reverse MDR to paclitaxel, doxorubicin, and mitoxantrane", "setting": "MDR cancer cell lines; ovarian, breast, uterine, colon, and sarcoma MDR cancer cell lines", "value": "able to reverse MDR"}]}]}
